Consider 23 compounds from patent US4447439A, “2-Cyclic amino-2-(1,2-benzisoxazol-3-yl)acetic acid ester derivatives, process for the preparation thereof and composition containing the same” (priority 1981, dated 1984).

Converted amounts (≈) assume the structure as drawn. Counter-ions that a name gives are not always drawn. Like-named read-outs stand apart in the source and are kept apart here.

Series [1] concerns section of the ileum (contractile response induced by transmural stimulation). In words: Inhibitory effect on contractile response induced by transmural stimulation (Anti-TMS). The class given is cell-based, male Hartley strain guinea pig. The note with it: guinea pig ileum, transmural stimulation 5 Hz, 20-30 V, compound applied 20 minutes before; for IC50: Cavia porcellus, read-out: IC50 Anti-TMS (antispasmodic activity in vitro). The procedure: (1) Inhibitory effect on contractile response induced by transmural stimulation (Anti-TMS)
From male Hartley strain guinea pig, weighing 300-350 g, section of the ileum about 3 cm in length was prepared and mounted in Tyrode's solution kept at 35° C. and oxygenated with 95% O2 --5% CO2, and responses of the ileum were recorded isotonically with an initial tension of 1 g. The ileum was stimulated electrically by the method of W. D. M. Paton [cf. […] The electrode was made of platinum and the intraluminal electrode was used at a frequency of 5 Hz and at a voltage sufficient to give a maximal response (20-30 V). Test compounds were applied 20 minutes before the stimulation.
(§1) In the experiments (1) and (2), each compound was tested in three different concentrations.

The test system of series [2] is section of the ileum (contractile response induced by acetylcholine). In words: Inhibitor effect on contractile response induced by acetylcholine (Anti-ACh). It counts as cell-based, male Hartley strain guinea pig. The note with it: guinea pig ileum, acetylcholine 2×10^-8 g/ml, compound applied 2 minutes before; for IC50: Cavia porcellus, read-out: IC50 Anti-ACh (antispasmodic activity in vitro). The procedure: (2) Inhibitor effect on contractile response induced by acetylcholine (Anti-ACh)
In the same manner as described in the above experiment (1), ileum preparation was prepared and mounted in Tyrode's solution. The response of the ileum to acetylcholine (2×10^-8 g/ml) were recorded isotonically. Test compounds were applied 2 minutes before adding the acetylcholine.
as §1

The nature of series [3]: Safety index (ED50 of mydriatic activity / ID50 of Anti-SGM). Further details: species or system male Wistar strain rats. Particulars: rat, in vivo, po. How it is done: This effect was examined using male Wistar strain rats, weighing about 250 g, with chronically implanted strain gauge force transducer as mentioned in the experiment (1). The rats were usually allowed to stand for 3-5 days for recovery from the surgery and fasted for 18 hours before experiment. Then, spontaneous gastric motility in conscious rats were recorded and the sum of amplitude of each contraction was calculated every 15 minutes. Inhibitory effect of test compound by oral administration was expressed as a percent inhibition of initial spontaneous motility. ID50 value, i.e., the dose required for 50% inhibition of spontaneous motility, was determined from regression line calculated by the maximum percent inhibition at each dose level.

Series [4] concerns spontaneous gastric motility. The experiment in a line: Inhibitory effect on spontaneous gastric motility (Anti-SGM). Further details: species or system male Wistar strain rats. Particulars: Rattus norvegicus; conscious rats, fasted 18 hours, oral; read-out: ID50 Anti-SGM (antispasmodic activity in vivo). The procedure:
(2) Inhibitory effect on spontaneous gastric motility (Anti-SGM)
This effect was examined using male Wistar strain rats, weighing about 250 g, with chronically implanted strain gauge force transducer as mentioned in the experiment (1). The rats were usually allowed to stand for 3-5 days for recovery from the surgery and fasted for 18 hours before experiment. Then, spontaneous gastric motility in conscious rats were recorded and the sum of amplitude of each contraction was calculated every 15 minutes. Inhibitory effect of test compound by oral administration was expressed as a percent inhibition of initial spontaneous motility.

In series [5] the test system is stomach (contractile response induced by carbachol). In words: Inhibitor effect on contractile response induced by carbachol (Anti-Car). Further details: species or system male Wistar strain rats. The note with it: Rattus norvegicus, iv; anesthetized rats, carbachol 10 μg/kg, i.v.; read-out: ID50 Anti-Car (antispasmodic activity in vivo). The procedure:
(1) Inhibitor effect on contractile response induced by carbachol (Anti-Car)
This effect was examined using the strain gauge force transducer as described by X. B. Pascaud et al. [cf. Am. […] The transducer was sutured on the serosa of the stomach in anesthetized male Wistar strain rats, weighing about 250 g. This transducer can record simultaneously contractions and tone variation of the muscle. The contractile response induced by carbachol (10 μg/kg, i.v.) was estimated before and after administration of test compound. Inhibitory effect of test compound was expressed as a percent inhibition of the response.

A short description of another series: in vivo. The note with it: rat, po.
A short description of a further series: Mydriatic activity. The note with it: rat, in vivo, po.
A short description of a further series: Acute lethal toxicity. The arrangement: species or system male and female Jcl:SD strain rats. The note with it: rat, in vivo, po, single oral, 7 days.

Usually IC50 stands for the midpoint of a concentration-inhibition curve. Broadly, the LD50 is the dose at which mortality reaches 50%. Read a low LD50 as greater toxicity.

Excerpt for in vivo: This activity was examined according to the method of P. Pelewka [cf.

For `C[N+]1(C)CCC(OC(=O)C(c2noc3ccccc23)N2CCCCCCC2)CC1` (stereo not shown) [Example 27], the IC50 is 0.088 µg/mL in series [1] and 0.014 µg/mL in series [2].
`CCCC[N+]1(C)C2CC(OC(=O)C(CO)c3ccccc3)CC1C1OC12` (stereo not shown) [Scopolamine-N-butyl bromide, scopolamine-N-butyl bromide, reference compound]: the IC50 in series [1] was determined as 0.44 µg/mL; in series [2] it was 0.089 µg/mL. Moreover, the selectivity ratio in series [3] is 2. Moreover, the ED50 in series [4] amounted to 100 mg/kg; in series [5], 0.0201 mg/kg; in the series “in vivo” it was 227 mg/kg.
For the compound `CCN1CCCC(OC(=O)C(c2noc3ccccc23)N2CCCCCC2)C1` (stereo not shown) [Example 3], the IC50 in series [1] came to 0.11 µg/mL (≈ 0.285 µM); in series [2] it was 0.042 µg/mL (≈ 0.109 µM).
The matching figures for `CC1CCCN(C(C(=O)OC2CC[N+](C)(C)CC2)c2noc3ccccc23)C1` (stereo not shown) [Example 23]: 0.074 µg/mL and 0.036 µg/mL.
The matching figures for `C[N+]1(C)CCC(OC(=O)C(c2noc3ccccc23)N2CCCC2)CC1` (stereo not shown) [Example 39]: 0.058 µg/mL and 0.051 µg/mL.
As for `CC[N+]1(C)CCCC(OC(=O)C(c2noc3ccccc23)N2CCCCCC2)C1` (stereo not shown) [Example 22], the figures for the IC50 in series [1] and in series [2] were 0.096 µg/mL and 0.022 µg/mL, respectively.
Take `C[N+]1(C)CCC(OC(=O)C(c2noc3ccccc23)N2CCCCCC2)CC1` (stereo not shown) [Example 38]: in series [1], the “IC50 Anti-TMS (antispasmodic activity in vitro)” value (from here on “IC50 Anti-TMS”) was found to be 27 ng/mL. In series [2], the 50% inhibitory concentration (IC50) was 0.024 µg/mL.
As for `C[N+]1(C)CCC(OC(=O)C(c2noc3ccccc23)N2CCCCC2)CC1` (stereo not shown) [Example 36], the 50% inhibitory concentration (IC50) is 0.11 µg/mL in series [1] and 0.029 µg/mL in series [2].
As to `C[N+]1(C)CCC(OC(=O)C(c2noc3ccc(Cl)cc23)N2CCCCCC2)CC1` (stereo not shown) [Example 42], the IC50 in series [1] was determined as 0.34 µg/mL; in series [2], 0.078 µg/mL.
In the case of `CN1CCC(OC(=O)C(c2noc3ccccc23)N2CCCCCC2)CC1` (stereo not shown) [Example 16, 1-methyl-4-piperidyl 2-hexamethyleneimino-2-(1,2-benzisoxazol-3-yl)acetate], the IC50 turned out to be 0.034 µg/mL (≈ 0.0915 µM) in series [1] and 0.023 µg/mL (≈ 0.0619 µM) in series [2].
In the same order, the values of `CC[N+]1(C)CCC(OC(=O)C(c2noc3ccccc23)N2CCCC2)CC1` (stereo not shown) [Example 33] are 0.18 µg/mL and 0.032 µg/mL.
For `C[N+]1(C)CCC(OC(=O)C(c2noc3ccccc23)N2CCCCC2)CC1.[I-]` (stereo not shown) [Example 21, 1,1-Dimethyl-4-[2-piperidino-2-(1,2-benzisoxazol-3-yl)acetoxy]piperidinium iodide], the IC50 in series [1] is 0.09 µg/mL; in series [2] it was 0.032 µg/mL.
For `CC[N+]1(C)CCC(OC(=O)C(c2noc3ccccc23)N2CCCCC2)CC1` (stereo not shown) [Example 34], the IC50 in series [1] (20 min) was found to be 0.044 µg/mL; in series [2] it was 0.033 µg/mL.
In the case of `CC[N+]1(C)CCC(OC(=O)C(c2noc3ccccc23)N2CCCCCC2)CC1.[I-]` (stereo not shown) [Example 17(i), 1-ethyl-1-methyl-4-[2-hexamethyleneimino-2-(1,2-benzisoxazol-3-yl)acetoxy]piperidinium iodide], the IC50 in series [1] amounted to 0.14 µg/mL. Besides, the ED50 in “Mydriatic activity” was above 3000 mg/kg; in series [4], 26.3 mg/kg; in series [5] it was 0.0187 mg/kg. Moreover, the selectivity ratio in series [3] (ED50 of mydriatic activity divided by ID50 of Anti-SGM, read-out: Safety index) was above 114. The LD50 at 168 h turned out to be 6320 mg/kg in “Acute lethal toxicity” (female rats) and 5430 mg/kg in the series “Acute lethal toxicity” (male rats).
Take `CC1CCN(C(C(=O)OC2CC[N+](C)(C)CC2)c2noc3ccccc23)CC1` (stereo not shown) [Example 37]: the IC50 in series [1] is 0.24 µg/mL; in series [2] it was 0.072 µg/mL.
Turning to `CN1CCCC(OC(=O)C(c2noc3ccccc23)N2CCCCCC2)C1` (stereo not shown) [Example 8], the IC50 in series [1] came out at 0.11 µg/mL (≈ 0.296 µM); in series [2], 0.039 µg/mL (≈ 0.105 µM).
Regarding `CN1[C@@H]2CC[C@H]1C[C@@H](OC(=O)C(CO)c1ccccc1)C2` (stereo partly shown) [Atropine sulfate, atropine sulfate, reference compound], the results for the IC50 in series [1] and in series [2] were 0.035 µg/mL and 0.005 µg/mL, respectively. Also, the ED50 is 3.5 mg/kg in the series “Mydriatic activity”, 1.7 mg/kg in series [4] and 0.0084 mg/kg in series [5].
In the case of `C[N+]1(C)CCC(OC(=O)C(c2noc3ccccc23)N2CCCCCC2)CC1` (stereo not shown) [Example 28], the “IC50 Anti-TMS” value in series [1] came to 100 ng/mL. The “IC50 Anti-ACh (antispasmodic activity in vitro)” value in series [2] came out at 13 ng/mL.
For the compound `CC[N+]1(C)CCC(OC(=O)C(c2noc3ccccc23)N2CCCCCC2)CC1` (stereo not shown) [Example 31], the “IC50 Anti-TMS” value in series [1] was determined as 120 ng/mL. Also, the “IC50 Anti-ACh (antispasmodic activity in vitro)” value in series [2] came to 55 ng/mL.
Turning to `C[N+]1(C)CCC(OC(=O)C(c2noc3ccc(F)cc23)N2CCCCCC2)CC1` (stereo not shown) [Example 44], the IC50 in series [1] is 0.29 µg/mL; in series [2], 0.08 µg/mL.
With `C[N+]1(C)CCCC(OC(=O)C(c2noc3ccccc23)N2CCCCCC2)C1` (stereo not shown) [Example 24], the IC50 in series [1] was 0.1 µg/mL; in series [2], 0.036 µg/mL.
Turning to `CC[N+]1(C)CCC(OC(=O)C(c2noc3ccccc23)N2CCCCCC2)CC1` (stereo not shown) [Example 30], the IC50 in series [1] is 0.18 µg/mL; in series [2], 0.064 µg/mL.
Consider `C[N+]1(C)CCC(OC(=O)C(c2noc3ccccc23)N2CCCCCC2)CC1.[I-]` (stereo not shown) [Example 20, 1,1-dimethyl-4-[2-hexamethyleneimino-2-(1,2-benzisoxazol-3-yl)acetoxy]piperidinium iodide], for which the results for the IC50 in series [1] and in series [2] were 0.12 µg/mL and 0.02 µg/mL, respectively.
